The values that follow come from US4528380A, “5-(1-Propyl)n-butyl tetrazoles” (Delalande S.A., priority 1981, dated 1985).

Where only a bound is given, the exact number is not on record here.

For data set [1], the system named is mortality induced by bicucullin. The data set is described as follows: Protection against mortality induced by intravenous bicucullin (anti-convulsive activity). The class given is in vivo. To be noted: Mus musculus, ip; mice, compound i.p.; intravenous injection of 0.7 mg/kg of bicucullin; read-out: ED 50 against mortality induced by bicucullin.
Data set [2] can be described thus: Acute toxicity, intraperitoneal, method of Miller and Tainter. The following applies: mouse, in vivo, ip, mice, read-out: Acute toxicity LD 50. The procedure:
Acute toxicity is assessed intraperitoneally on mice according to the method of Miller and Tainter described in Proc. Soc. Exp. Biol. Med. 57, 261, (1944).

As for `CCCC(CCC)c1nn[nH]n1` [compound 6, [1-(1-n propyl)nbutyl] tetrazole], in data set [1], the ED50 amounted to 135 mg/kg. In addition, in data set [2], the LD50 was greater than 400 mg/kg.
As for `CCCCC(C)(CC)c1nn[nH]n1` (centres unmarked) [compound 3], in data set [1], the ED50 turned out to be 120 mg/kg. In addition, the LD50 in data set [2] is 320 mg/kg.
On the same counts, the results for `CCCC(CCC)(CCC)c1nn[nH]n1` [compound 5] are 44 mg/kg and 280 mg/kg.
On the same counts, the results for `CCC(C)(C)c1nn[nH]n1` [compound 1] are 100 mg/kg and greater than 400 mg/kg.
